The nature of data set [1]: In vitro liver microsomal stability assay (human). It counts as in vitro ADME. To be noted: human liver microsomes. How it is done: Liver microsomal stability assays are conducted at 1 mg per mL liver microsome protein with an NADPH in phosphate buffer (100 mM, pH 7.4). Test compounds (compound of formula B of the invention) are prepared as solutions in 20% methanol-water and added to the assay mixture (final assay concentration 1 μM) and incubated at 37° C. Aliquots (100.μ·L) are taken out at times 0, 15, and 30 minutes, and diluted with ice cold acetonitrile containing IS (200.mu·L) to stop the reactions. Samples are centrifuged at 10,000 RPM for 5 minutes to precipitate proteins. Supernatants are transferred to micro centrifuge tubes and stored at −20° C. for analysis of LC/MS/MS. The percent parent remaining of the test substance is calculated as Ratio of peak area at each time point to peak area ratio at zero min, multiplied by 100. The compound formula (B) is converted to Rivaroxaban in microsomal assay.

In data set [2] the test system is plasma protein. The data set can be described thus: Plasma protein binding (human). Format: in vitro ADME. On the procedure:
(§1) A compound solution (1 mM in DMSO) (5 μL), according to the invention is added to the respective plasma matrices of rat or human or mouse (1 ml).
(§2) Add 150 ul of phosphate buffer to receiving side of the dialysis well. […] Precipitate with Acetonitrile and dilute samples prior to analysis in 1.5 ml polypropylene tubes. Remove 50 μl from the sample side of dialysis well and add 50 μl of phosphate buffer +300 μl of acetonitrile containing IS. Remove 50 μl from the buffer side of the dialysis well and add 50 μl of respective matrix plasma +300 μl of ACN. Then vortexed and centrifuged for 5 min, and supernatant is taken and injected into LCMS.
(§3) Different test concentration ranging from 0.1 μM to 20 μM are made in methanol:water (90:10). Test solutions are added to the premixed matrix containing plasma:phosphate buffer (50:50). Precipitate with 300 μl of ice cold acetonitrile containing IS, vortexes and centrifuged. Supernatant is taken and injected into LCMS. Percentage of plasma protein binding was obtained via Equation(2):% Fraction unbound=(concentration on the buffer side/concentration on the sample side)*100 Table-7

In the next data set the target is CYP2D6 (Homo sapiens (Human), UniProt P10635). The data set can be described thus: CYP inhibition assay. Conditions: pooled human liver microsomes; extrapolated IC50 derived from 3 μM; read-out: IC50 (μM) of CYP isoforms, 2D6. It counts as in vitro ADME. How it is done: (§4) The ability of substances to inhibit CYP1A2, CYP2C9, CYP2D6, CYP2C19, CYP2J2 and CYP3A4 in humans was investigated with pooled human liver microsomes as enzyme source in the presence of standard substrates (see below) which form CYP-isoform-specific metabolites.
Sequence of CYP2D6 (P10635 whole entry, canonical isoform): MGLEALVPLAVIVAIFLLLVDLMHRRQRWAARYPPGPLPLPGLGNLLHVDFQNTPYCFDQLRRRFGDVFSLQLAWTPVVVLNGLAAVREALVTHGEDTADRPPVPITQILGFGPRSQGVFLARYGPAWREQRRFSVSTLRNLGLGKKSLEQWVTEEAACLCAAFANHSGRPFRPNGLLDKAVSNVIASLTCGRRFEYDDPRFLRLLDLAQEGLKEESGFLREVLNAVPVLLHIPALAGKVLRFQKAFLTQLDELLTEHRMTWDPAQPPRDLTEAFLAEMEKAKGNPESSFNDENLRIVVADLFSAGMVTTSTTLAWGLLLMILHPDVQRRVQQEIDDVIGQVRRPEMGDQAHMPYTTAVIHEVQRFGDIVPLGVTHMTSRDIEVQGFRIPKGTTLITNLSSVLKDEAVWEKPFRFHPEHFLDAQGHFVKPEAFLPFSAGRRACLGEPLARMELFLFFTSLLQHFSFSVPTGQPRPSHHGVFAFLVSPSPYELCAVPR
(§5) Standard incubation mixtures comprise NADPH and substrates in 100 mM phosphate buffer (pH 7.4) in a total volume of 200 μl. Test compound are dissolved in acetonitrile. Incubated with pooled human liver microsomes at 37° C. for a defined time. The reactions are stopped by adding 100 μl of acetonitrile in which a suitable internal standard is always present. Precipitated proteins are removed by centrifugation, and the supernatants analyzed by LC-MS/MS. The data represents the extrapolated IC50 (μM) concentration derived from 3 μM.

For the next data set, the target named is CYP2C19 (Homo sapiens (Human), UniProt P33261). The data set can be described thus: CYP inhibition assay. Format: in vitro ADME. Conditions: pooled human liver microsomes; extrapolated IC50 derived from 3 μM; read-out: IC50 (μM) of CYP isoforms, 2C19. On the procedure:
as §4, §5

The target of a further data set is CYP2C9 (Homo sapiens (Human), UniProt P11712). The data set can be described thus: CYP inhibition assay. Format: in vitro ADME. To be noted: pooled human liver microsomes; extrapolated IC50 derived from 3 μM; read-out: IC50 (μM) of CYP isoforms, 2C9. How it is done: as §4, §5
Sequence of CYP2C9 (P11712 whole entry, canonical isoform): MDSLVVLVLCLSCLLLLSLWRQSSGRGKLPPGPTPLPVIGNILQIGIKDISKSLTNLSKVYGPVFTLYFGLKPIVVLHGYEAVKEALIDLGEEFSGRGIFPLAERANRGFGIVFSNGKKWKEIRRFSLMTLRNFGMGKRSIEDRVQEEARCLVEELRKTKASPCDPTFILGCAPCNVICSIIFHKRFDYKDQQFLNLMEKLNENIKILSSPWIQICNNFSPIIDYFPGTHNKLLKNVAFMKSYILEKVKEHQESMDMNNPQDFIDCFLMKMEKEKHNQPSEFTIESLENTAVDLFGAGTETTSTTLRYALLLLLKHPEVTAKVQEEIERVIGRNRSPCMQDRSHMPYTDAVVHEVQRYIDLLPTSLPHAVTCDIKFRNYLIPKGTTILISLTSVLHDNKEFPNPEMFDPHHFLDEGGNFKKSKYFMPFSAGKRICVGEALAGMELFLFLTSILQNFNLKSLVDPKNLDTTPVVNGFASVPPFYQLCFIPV
The next data set concerns the target CYP2J2 (Homo sapiens (Human), UniProt P51589). The data set can be described thus: CYP inhibition assay. It counts as in vitro ADME. To be noted: pooled human liver microsomes; extrapolated IC50 derived from 3 μM; read-out: IC50 (μM) of CYP isoforms, 2J2. On the procedure: as §4, §5
Data set [3] concerns plasma protein. The data set can be described thus: Plasma protein binding (mouse). Format: in vitro ADME. On the procedure: as §1, §2, §3
Data set [4] has as its system plasma protein. Nature of the data set: Plasma protein binding (rat). It counts as in vitro ADME. On the procedure:
as §1, §2, §3

Data set [5] can be described thus: Stability in buffer at various pH. Format: physicochemical. Conditions: for Analyte Peak Area, Average: Standard average 39849828. On the procedure:
(§6) On completion of incubation period, the solution is centrifuged and supernatant is taken. To the supernatant, ice cold acetonitrile containing IS is added, vortexed and injected into LCMS/MS.
(§7) API 4000, ESI Agilent 1100 column: Gemini Nx 100 mm×4.6 mm 5.μ; column temperature: 30° C.; eluent A: 0.1% formic acid in water, eluent B: acetonitrile; gradient: 0-2.5 min 95% A, 5% B; 2.5-2.6 min 5% A, 95% B; 2.6-4.2 min 95% A, 5% B; flow rate: 0.8 ml/min; ESI. Q1:464.098, Q3:144.255
(§8) Prepared 0.1 mol of citric acid and 0.2 mol of di sodium hydrogen phosphate in water. Buffer pH 2.2, 4 and 7.8 are prepared using citric acid and disodium hydrogen phosphate by adjusting the pH with 0.1N HCl or 1N NaOHpH 7.4: 8.89 g disodium hydrogen phosphate (Solution A) add to 1 liter of water, 1.5601 g sodium di-hydrogen phosphate (solution B) are made up to 1 liter with water; Solution A (19 ml) and Solution B (81 ml) are mixed. SIF/SGF: 2.38 g of SIF original powder (biorelavant media) is dissolved in 1 L of milliQ water. The pH of the solution is adjusted for SIF (7.4) and SGF (2.2) with 0.1N HCl. The ratios of the peak areas (F) at the respective time points in relation to the peak areas at the starting time are calculated

Another data set concerns CYP isoforms. The data set can be described thus: CYP inhibition assay, all isoforms (overall interpretation). Format: in vitro ADME, human. Conditions: with other drug when administered. How it is done:
as §4, §5
(§9) This is an essential parameter to gauge drug-drug interactions.

In data set [6] the test system is CYP1A2, CYP2C9, CYP2D6, CYP2C19, CYP2J2 and CYP3A4. Described as above. It counts as in vitro ADME, human. To be noted: human, pooled human liver microsomes, pH 7.4; all assayed isoforms; minimal inhibition; read-out: inhibition of the CYP isoforms that were assayed. How it is done:
as §4, §5, §9
On the technique in general: Microsomes from liver hold many membrane-bound enzymes, among them those of drug oxidation.

The nature of data set [7]: Stability in simulating gastric fluid (SGF). It counts as physicochemical. On the procedure: as §6, §7, §8
The peak area (F) is directly correlated to the amount of test compound which is quantified by the LC MS method.
In simulating intestinal and gastric fluid, the area of the formula B compared with zero minute area to 120 min.

Each structure is given as a SMILES string.

Sequence of CYP2C19 (P33261 whole entry, canonical isoform): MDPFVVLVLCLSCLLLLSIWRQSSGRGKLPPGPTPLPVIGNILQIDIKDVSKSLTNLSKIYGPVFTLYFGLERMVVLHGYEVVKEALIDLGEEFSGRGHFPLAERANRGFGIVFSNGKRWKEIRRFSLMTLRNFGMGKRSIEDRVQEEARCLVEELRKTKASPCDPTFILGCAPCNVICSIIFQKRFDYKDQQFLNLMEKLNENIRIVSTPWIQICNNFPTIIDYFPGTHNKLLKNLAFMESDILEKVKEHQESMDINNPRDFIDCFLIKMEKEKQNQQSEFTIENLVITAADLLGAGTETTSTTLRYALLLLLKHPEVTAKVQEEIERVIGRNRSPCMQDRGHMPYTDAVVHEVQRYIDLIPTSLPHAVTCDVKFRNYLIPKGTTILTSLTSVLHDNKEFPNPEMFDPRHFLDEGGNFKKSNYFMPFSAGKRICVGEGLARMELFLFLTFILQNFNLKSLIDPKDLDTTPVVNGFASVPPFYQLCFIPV
Sequence of CYP2J2 (P51589 whole entry, canonical isoform): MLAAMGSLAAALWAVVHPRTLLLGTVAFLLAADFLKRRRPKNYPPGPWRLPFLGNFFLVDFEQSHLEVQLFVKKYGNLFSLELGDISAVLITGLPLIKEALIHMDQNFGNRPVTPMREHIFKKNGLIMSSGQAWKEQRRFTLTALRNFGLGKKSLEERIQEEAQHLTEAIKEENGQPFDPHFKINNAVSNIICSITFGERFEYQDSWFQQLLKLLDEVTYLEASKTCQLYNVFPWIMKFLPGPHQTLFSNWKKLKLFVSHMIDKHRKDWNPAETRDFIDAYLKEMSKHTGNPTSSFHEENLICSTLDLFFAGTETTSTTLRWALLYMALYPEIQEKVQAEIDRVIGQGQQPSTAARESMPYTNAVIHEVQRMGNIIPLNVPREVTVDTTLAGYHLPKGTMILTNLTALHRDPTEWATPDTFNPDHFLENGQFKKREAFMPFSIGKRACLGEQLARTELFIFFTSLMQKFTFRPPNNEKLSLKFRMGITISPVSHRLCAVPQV

Turning to `O=CN(C[C@H]1CN(c2ccc(N3CCOCC3=O)cc2)C(=O)O1)C(=O)c1ccc(Cl)s1` [Compound formula B, 5-chloro-N-formyl-N-({(5S)-2-oxo-3-[4-(3-oxomorpholin-4-yl)phenyl]-1,3-oxazolidin-5-yl}methyl)thiophene-2-carboxamide], in data set [1], the “Observation (metabolism; for Test Product: of the formed rivaroxaban)” value is on record as “stable in human”. The “amount of test product detected” value in data set [1] (metabolised to rivaroxaban from zero min) is on record as “Neglible amount”. Besides, the “Observation: amount of test product” value with plasma protein [2], in the data set with plasma protein [3] and in the data set with plasma protein [4] was “Not quantificable amount” each time. Also, the “Observation: formed Rivaroxaban bound to plasma protein” value in the data set with plasma protein [2] was “found to be High bound to”; in the data set with plasma protein [3] it was “found to be moderate-High”; with plasma protein [4] it was “found to be moderate-High”. Further, the IC50 was 8.2 µM at CYP2D6; 25.3 µM on CYP2C19; 22.4 µM at CYP2C9; 6.7 µM on CYP2J2; above 1 µM in data set [6]. Besides, the “Analyte Peak Area, Average” value in data set [5] (buffer pH 2.1, 24 hr room temperature) is 28315038 counts; in [5] (buffer pH 4, 24 hr room temperature), 34879190 counts; in data set [5] (buffer pH 7.8, 24 hr room temperature), 38907.5 counts. For the same molecule, the “stability in varying pH buffer conditions” value in data set [5] (rivaroxaban formation observed by LCMS) is listed as “degraded in varying pH buffer conditions”. Moreover, in the data set with CYP isoforms, the “Interpretation of CYP inhibition studies” value is on record as “Low drug-drug interaction (compound formula-B”. For the same molecule, the “% Parent remaining” value in data set [7] (30 min) is listed as 99.27%; in [7] (60 min), 101.17%; in data set [7] (120 min), 100.05%; in data set [7] (Zero min), 100%. The “Conclusion (stability in SGF)” value in data set [7] (up to 120 min) is “is stable”.

(Values after patent publication US9359341B2, “Aldehyde derivative of substitute oxazolidinones” (WANBURY LTD., priority 2012, dated 2016).)
